Data as given in patent publication US7803803B2, “Tetrahydrofuro[3,2-B] pyrrol-3-ones as cathepsin K inhibitors” (Amura Therapeutics Limited, priority 2007, dated 2010).

What was measured:
[1] = tested on: human osteoclasts; assay: Human osteoclast resorption assay; format: cell-based; details: Homo sapiens, Osteoclast, 48 h, 1 □ M, read-out: Cell-based % Inh. @ 1 □ M Human
Description: Bone resorption was studied using a model where human osteoclast precursor cells were cultured on bovine bone slices for 9 days and allowed to differentiate into bone-resorbing osteoclasts. The formed mature osteoclasts were then allowed to resorb bone. The assay was performed by Pharmatest Services Ltd, Itäinen Pitkakatu 4C, Turku, Finland. After the culture period, bone collagen degradation products were quantified from the culture medium as an index of bone resorption. Inhibitor compounds were added into the cell cultures after the differentiation period and their effects on the resorbing activity of mature osteoclasts were determined. The studies included a baseline group without added compounds and a positive control group where a potent cathepsin K inhibitor E-64 was added.
Human peripheral blood monocytes were suspended to culture medium and allowed to attach to bovine bone slices. The bone slices were transferred into 96-well tissue culture plates containing culture medium with appropriate amounts of important growth factors favouring osteoclast differentiation, including M-CSF, RANK-ligand and TGF-[…]. The cells were incubated in a CO2 incubator in humidified atmosphere of 95% air and 5% carbon dioxide at 37° C. At day 7 when osteoclast differentiation was complete, the culture medium was replaced with culture medium containing conditions favouring osteoclast activity. The cell culture was continued for an additional 2 days, during which the formed mature osteoclasts were allowed to resorb bone in the presence of vehicle, control inhibitor (E64) or test compounds. At the end of the culture, bone collagen degradation products released into the culture medium were determined using a commercially available ELISA method (CrossLaps® for culture, Nordic Bioscience, Herlev, Denmark) as an index of bone resorption (see Bagger, Y. Z. et al, J. Bone. Miner. Res. 14 (suppl. 1), S370).

[2] = Plasma incubations (human plasma stability); format: in vitro ADME; details: 37° C. Note: tested at 25 µM.
Description: Aliquots were removed at 2 and 60 minutes and quenched with an equal volume of cold acetonitrile. After mixing vigorously, the precipitated protein matter was removed by filtration (Multiscreen Solvinert filter plates, Millipore, Bedford, Mass., USA) and the filtrate analysed by reverse phase HPLC with mass spectrometric detection, using single ion monitoring of the [M+H]^+ species. Metabolic turnover was determined by comparison of peak areas from the ion chromatograms of the parent compound at 2 and 60 minutes and expressed as percent remaining at 1 hour.

[3] = LogD determinations; format: physicochemical; details: Ion-count method; for logD at 1 h: 1-octanol/phosphate buffered saline, pH 7.4, pH 7.4
Description: LogD(PBS) determinations were performed in 96 well microtitre plates using a miniaturised “shake-flask” method. […] The plates were then capped and mixed vigorously for 1 hour on a microtitre plate shaker, after which they were left to stand, allowing the PBS and octanol phases to separate. The PBS layer was analysed by reverse phase HPLC with mass spectrometric detection, using single ion monitoring of the [M+H]^+ species.
Where AUCstd and AUCpbs are the peak areas from the standard and test ion chromatograms respectively.

[4] = target: T1, cathepsin K (Homo sapiens, UniProt P43235); assay: In vitro cathepsin Ki inhibition measurements; format: biochemical; set-up: purchased B. Turk, Josef Stefan Institute, Ljubljana, Slovenia; details: human recombinant cathepsin K; read-out: In vitro Ki (nM) vs Cath K
T1 sequence (P43235 115-329): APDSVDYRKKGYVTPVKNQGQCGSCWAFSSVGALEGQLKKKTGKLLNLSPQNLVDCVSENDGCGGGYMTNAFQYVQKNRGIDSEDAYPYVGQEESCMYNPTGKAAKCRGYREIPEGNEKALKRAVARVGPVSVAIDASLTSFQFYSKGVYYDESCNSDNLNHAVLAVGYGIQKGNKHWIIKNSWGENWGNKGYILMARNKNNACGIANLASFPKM
Description: Stock solutions of substrate or inhibitor were made up to 10 mM in 100% dimethylsulfoxide (DMSO) (Rathburns, Glasgow, U.K.) and diluted as appropriately required. In all cases the DMSO concentration in the assays was maintained at less than 1% (vol./vol.). The equilibrium inhibition constants (Ki^SS) for each compound were measured under steady-state conditions monitoring enzyme activity as a function of inhibitor concentration. The values were calculated on the assumption of pure competitive behaviour (Cornish-Bowden, A. Fundamentals of enzyme kinetics Portland Press; 1995, 93-128). Human recombinant cathepsin K (0.25 nM final; B. Turk, Josef, Stefan Institute, Ljubljana, Slovenia), was routinely assayed in 100 mM sodium acetate; pH 5.5 containing 1 mM EDTA, 10 mM L-cysteine and 1.8 μM Z-Leu-Arg-AMC ([S]═KM).
The apparent inhibition constant (Ki) for each compound was determined on the basis that inhibition was reversible and occurred by a pure-competitive mechanism. The Ki values were calculated, from the dependence of enzyme activity as a function of inhibitor concentration, by direct regression analysis (Prism v 3.02) using Equation 2 (Cornish-Bowden, A., 1995).
In situations where the apparent dissociation constant (Ki^app) approached the enzyme concentrations, the Ki^app values were calculated using a quadratic solution in the form described by Equation 3 (Morrison, J. F. Trends Biochem. Sci., 7, 102-105, 1982; Morrison, J. F. Biochim. Biophys. Acta, 185, 269-286, 1969; Stone, S. R. and Hofsteenge, J. Biochemistry, 25, 4622-4628, 1986).
Curves were fitted by non-linear regression analysis (Prism) using a fixed value for the enzyme concentration. Equation 4 was used to account for the substrate kinetics, where ‘Ki’ is the inhibition constant, ‘[So]’ is the initial substrate concentration and ‘KM^app’ is the apparent macroscopic binding (Michaelis) constant for the substrate (Morrison, 1982).

Compound | inhibition at 1 µM [1] [%] | Human Plasma Stability % rem. @ 1 h [2] [%] | logD at 1 h [3] | LogD pH 7.4 [3] | Ki [4] [nM]
CO[C@H]1CN(C(=O)[C@H](CC(C)C)NC(=O)c2ccc(N3CCN(C)CC3)cc2)[C@@H]2C(=O)CO[C@H]12 [Example 1, N—((S)-1-((3aS,6S,6aS)-6-methoxy-3-oxodihydro-2H-furo[3,2-b]pyrrol-4(5H,6H,6aH)-yl)-4-methyl-1-oxopentan-2-yl)-4-(4-methylpiperazin-1-yl)benzamide] | 63 to 88 | 96 | > 0.8 | 1.18 | 5.6
CO[C@H]1CN(C(=O)[C@H](CC(C)(C)C)NC(=O)c2ccc(N3CCN(C)CC3)cc2)[C@@H]2C(=O)CO[C@H]12 [Example 2, N—((S)-1-((3aS,6S,6aS)-6-methoxy-3-oxodihydro-2H-furo[3,2-b]pyrrol-4(5H,6H,6aH)-yl)-4,4-dimethyl-1-oxopentan-2-yl)-4-(4-methylpiperazin-1-yl)benzamide] | 63 to 88 | 93 | > 0.8 | 1.00 | 6.3
CO[C@@H]1CN(C(=O)[C@H](CC(C)(C)C)NC(=O)c2ccc(N3CCN(C)CC3)cc2)[C@@H]2C(=O)CO[C@@H]21 [Example 4, N—((S)-1-((3aS,6R,6aS)-6-methoxy-3-oxodihydro-2H-furo[3,2-b]pyrrol-4(5H,6H,6aH)-yl)-4,4-dimethyl-1-oxopentan-2-yl)-4-(4-methylpiperazin-1-yl)benzamide] | 63 to 88 | 89 | > 0.8 | 0.84 | 5.6
CCN1CCN(c2ccc(C(=O)N[C@@H](CC(C)C)C(=O)N3C[C@H](OC)[C@H]4OCC(=O)[C@H]43)cc2)CC1 [Example 5, 4-(4-ethylpiperazin-1-yl)-N—((S)-1-((3aS,6S,6aS)-6-methoxy-3-oxodihydro-2H-furo[3,2-b]pyrrol-4(5H,6H,6aH)-yl)-4-methyl-1-oxopentan-2-yl)benzamide] | 63 to 88 | 96 | > 0.8 | 1.05 | 5.8
CCN1CCN(c2ccc(C(=O)N[C@@H](CC(C)C)C(=O)N3C[C@@H](OC)[C@H]4OCC(=O)[C@H]43)cc2)CC1 [Example 7, 4-(4-ethylpiperazin-1-yl)-N—((S)-1-((3aS,6R,6aS)-6-methoxy-3-oxodihydro-2H-furo[3,2-b]pyrrol-4(5H,6H,6aH)-yl)-4-methyl-1-oxopentan-2-yl)benzamide] | 63 to 88 | 93 | > 0.8 | 0.89 | 9.9
CCN1CCN(c2ccc(C(=O)N[C@@H](CC(C)(C)C)C(=O)N3C[C@@H](OC)[C@H]4OCC(=O)[C@H]43)cc2)CC1 [Example 8, 4-(4-ethylpiperazin-1-yl)-N—((S)-1-((3aS,6R,6aS)-6-methoxy-3-oxodihydro-2H-furo[3,2-b]pyrrol-4(5H,6H,6aH)-yl)-4,4-dimethyl-1-oxopentan-2-yl)benzamide] | 63 to 88 | 92 | > 0.8 | 1.09 | 9.2
CCCN1CCN(c2ccc(C(=O)N[C@@H](CC(C)C)C(=O)N3C[C@@H](OC)[C@H]4OCC(=O)[C@H]43)cc2)CC1 [Example 15, N—((S)-1-((3aS,6R,6aS)-6-methoxy-3-oxodihydro-2H-furo[3,2-b]pyrrol-4(5H,6H,6aH)-yl)-4-methyl-1-oxopentan-2-yl)-4-(4-propylpiperazin-1-yl)benzamide] | 63 to 88 | 92 | > 0.8 | 1.34 | 16.3
CCCN1CCN(c2ccc(C(=O)N[C@@H](CC(C)(C)C)C(=O)N3C[C@@H](OC)[C@H]4OCC(=O)[C@H]43)cc2)CC1 [Example 16, N—((S)-1-((3aS,6R,6aS)-6-methoxy-3-oxodihydro-2H-furo[3,2-b]pyrrol-4(5H,6H,6aH)-yl)-4,4-dimethyl-1-oxopentan-2-yl)-4-(4-propylpiperazin-1-yl)benzamide] | 63 to 88 | 97 |  | 1.69 | 3.7
CO[C@@H]1CN(C(=O)[C@H](CC(C)(C)C)NC(=O)c2ccc(N3CCN(C(C)C)CC3)cc2)[C@@H]2C(=O)CO[C@@H]21 [Example 22, 4-(4-isopropylpiperazin-1-yl)-N—((S)-1-((3aS,6R,6aS)-6-methoxy-3-oxodihydro-2H-furo[3,2-b]pyrrol-4(5H,6H,6aH)-yl)-4,4-dimethyl-1-oxopentan-2-yl)benzamide] | 63 to 88 | 91 | > 0.8 | 1.2 | 8.4
COCCN1CCN(c2ccc(C(=O)N[C@@H](CC(C)C)C(=O)N3C[C@H](N)[C@H]4OCC(=O)[C@H]43)cc2)CC1 [Example 23, N—((S)-1-((3aS,6S,6aR)-6-amino-3-oxodihydro-2H-furo[3,2-b]pyrrol-4(5H,6H,6aH)-yl)-4-methyl-1-oxopentan-2-yl)-4-(4-(2-methoxyethyl)piperazin-1-yl)benzamide] | 25 to 54 | 88 |  | 0.55 | 11.2
COCCN1CCN(c2ccc(C(=O)N[C@@H](CC(C)C)C(=O)N3C[C@H](O)[C@H]4OCC(=O)[C@H]43)cc2)CC1 [Example 25, N—((S)-1-((3aS,6S,6aS)-6-hydroxy-3-oxodihydro-2H-furo[3,2-b]pyrrol-4(5H,6H,6aH)-yl)-4-methyl-1-oxopentan-2-yl)-4-(4-(2-methoxyethyl)piperazin-1-yl)benzamide] | 25 to 54 | 92 |  | 0.56 | 6.9
COCCN1CCN(c2ccc(C(=O)N[C@@H](CC(C)C)C(=O)N3C[C@@H](O)[C@H]4OCC(=O)[C@H]43)cc2)CC1 [Example 26, N—((S)-1-((3aS,6R,6aS)-6-hydroxy-3-oxodihydro-2H-furo[3,2-b]pyrrol-4(5H,6H,6aH)-yl)-4-methyl-1-oxopentan-2-yl)-4-(4-(2-methoxyethyl)piperazin-1-yl)benzamide] | 25 to 54 | 95 |  | 0.23 | 8.1
COCCN1CCN(c2ccc(C(=O)N[C@@H](CC(C)C)C(=O)N3C[C@H](OC)[C@H]4OCC(=O)[C@H]43)cc2)CC1 [Example 27, N—((S)-1-((3aS,6S,6aS)-6-methoxy-3-oxodihydro-2H-furo[3,2-b]pyrrol-4(5H,6H,6aH)-yl)-4-methyl-1-oxopentan-2-yl)-4-(4-(2-methoxyethyl)piperazin-1-yl)benzamide] | 63 to 88 | 99 | > 0.8 | 1.23 | 6.3
COCCN1CCN(c2ccc(C(=O)N[C@@H](CC(C)C)C(=O)N3C[C@@H](OC)[C@H]4OCC(=O)[C@H]43)cc2)CC1 [Example 28, N—((S)-1-((3aS,6R,6aS)-6-methoxy-3-oxodihydro-2H-furo[3,2-b]pyrrol-4(5H,6H,6aH)-yl)-4-methyl-1-oxopentan-2-yl)-4-(4-(2-methoxyethyl)piperazin-1-yl)benzamide] | 25 to 54 | 88 |  | 0.76 | 14.4
